Laboratory results: ChEMBL document CHEMBL4417636, “Small molecule inhibitors of pendrin ion exchange and pharmaceutical compositions” (2017)
pIC50: −log10 of the molar value. Calls of active or inactive are those of the source. The calls are words filed in the database; no cut-off is given here.

How the values were obtained:
Mus musculus = test: Potentiation of 20 mg/kg, ip furosemide-induced acute diuretic action in CD1 mouse assessed as increase in urinary Na+ excretion at 10 mg/kg, ip measured at 3 hrs relative to control; format: functional, organism-based
Pendrin (Mus musculus) = molecular target: T1, Pendrin (Mus musculus) (UniProt Q9R155); test: Inhibition of mouse pendrin expressed in FRT cells co-expressing YFP-HIF assessed as reduction in pendrin-mediated exchange of Cl(-) with NO3(-) by pH-sensitive fluorescent probe BCECF-AM based fluorescence assay relative to control; format: cell-based
T1 sequence (whole entry): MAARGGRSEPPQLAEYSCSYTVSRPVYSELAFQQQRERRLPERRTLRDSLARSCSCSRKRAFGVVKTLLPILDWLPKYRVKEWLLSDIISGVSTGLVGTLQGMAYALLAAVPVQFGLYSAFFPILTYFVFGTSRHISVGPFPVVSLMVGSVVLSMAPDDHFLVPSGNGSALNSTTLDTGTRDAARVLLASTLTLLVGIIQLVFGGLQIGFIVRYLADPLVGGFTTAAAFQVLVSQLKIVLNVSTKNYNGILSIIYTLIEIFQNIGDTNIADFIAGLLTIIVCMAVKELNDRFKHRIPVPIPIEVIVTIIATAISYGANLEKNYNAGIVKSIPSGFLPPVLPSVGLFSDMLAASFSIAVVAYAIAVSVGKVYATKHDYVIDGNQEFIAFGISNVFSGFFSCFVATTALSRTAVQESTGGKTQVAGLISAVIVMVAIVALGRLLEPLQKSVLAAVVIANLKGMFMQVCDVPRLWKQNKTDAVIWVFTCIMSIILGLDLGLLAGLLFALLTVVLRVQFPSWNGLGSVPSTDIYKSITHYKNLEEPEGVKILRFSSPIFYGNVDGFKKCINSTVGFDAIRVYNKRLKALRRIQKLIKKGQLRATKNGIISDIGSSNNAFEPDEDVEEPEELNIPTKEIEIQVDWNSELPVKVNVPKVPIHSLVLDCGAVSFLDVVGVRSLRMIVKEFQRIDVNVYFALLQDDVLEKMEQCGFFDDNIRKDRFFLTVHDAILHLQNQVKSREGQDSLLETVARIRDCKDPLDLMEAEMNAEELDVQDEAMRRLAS

Pendrin = molecular target: T2, Pendrin (Homo sapiens, UniProt O43511); test: Inhibition of human pendrin expressed in FRT cells co-expressing EYFP-HIF assessed as reduction in pendrin-mediated Cl(-)/r exchange incubated for 10 mins by pH-sensitive fluorescent probe BCECF-AM based fluorescence assay relative to control; format: cell-based
T2 sequence (O43511 whole entry): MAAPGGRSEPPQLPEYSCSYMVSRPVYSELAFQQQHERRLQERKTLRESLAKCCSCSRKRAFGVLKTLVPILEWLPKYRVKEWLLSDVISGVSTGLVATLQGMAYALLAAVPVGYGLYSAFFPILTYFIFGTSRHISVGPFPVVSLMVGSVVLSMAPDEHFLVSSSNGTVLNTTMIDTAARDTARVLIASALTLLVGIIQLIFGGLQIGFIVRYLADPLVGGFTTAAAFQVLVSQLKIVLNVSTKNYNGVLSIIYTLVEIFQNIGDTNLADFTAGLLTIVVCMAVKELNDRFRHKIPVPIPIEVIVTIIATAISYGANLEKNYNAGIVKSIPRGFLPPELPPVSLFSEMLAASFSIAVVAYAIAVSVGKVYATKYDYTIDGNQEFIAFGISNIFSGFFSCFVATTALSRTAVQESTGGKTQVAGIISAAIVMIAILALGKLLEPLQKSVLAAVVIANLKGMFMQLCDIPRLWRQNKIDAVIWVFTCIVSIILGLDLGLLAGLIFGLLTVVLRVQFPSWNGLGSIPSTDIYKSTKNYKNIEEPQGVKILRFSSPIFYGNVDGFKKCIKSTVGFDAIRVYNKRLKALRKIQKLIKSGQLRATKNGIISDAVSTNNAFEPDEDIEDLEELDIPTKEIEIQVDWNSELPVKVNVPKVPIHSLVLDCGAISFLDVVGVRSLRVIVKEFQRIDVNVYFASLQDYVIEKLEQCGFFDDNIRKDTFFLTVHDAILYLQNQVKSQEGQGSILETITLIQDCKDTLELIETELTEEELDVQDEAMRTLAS

Homo sapiens [1] = species: Homo sapiens; test: Effect on airway surface liquid pH in IL13-stimulated NHBE cells at 25 uM by pH-sensitive fluorophore BCECF based fluorescence based assay; format: functional, cell-based
Homo sapiens [2] = species: Homo sapiens; test: Effect on gluconate gradient-induced Cl(-) efflux in NHBE cells at 25 uM; format: functional, cell-based
Homo sapiens [3] = species: Homo sapiens; test: Effect on airway surface liquid depth in human CFBE at 25 uM by rhodamine B-dextran fluorescence based confocal microscopy; format: functional

inhibition (Pendrin (Mus musculus)) | pIC50 (Pendrin) | SMILES | Activity (Mus musculus) | Activity (Homo sapiens [1]) | Activity (Homo sapiens [2]) | Activity (Homo sapiens [3])
Dose-dependent effect | 5.10 | Cc1n[nH]c(-c2cc(S(=O)(=O)NC3CCCc4ccccc43)c(C)s2)c1C (stereo unspecified) | Active | – | – | –
– | – | Cn1nc(COc2cccc(F)c2)c2c1CCN(C(=O)Nc1ccc(Cl)cc1)C2 | – | inactive | inactive | inactive
